Assay results: ChEMBL document CHEMBL3352653, “Synthesis of pyrazolo[4,3-a]phenanthridines, a new scaffold for Pim kinase inhibition” (Bioorg Med Chem, 2014)

Key:
[1] = biological target: T1, Serine/threonine-protein kinase pim-1 (Homo sapiens, UniProt P11309); assay: Inhibition of full-length human PIM1 using RSRHSSYPAGT as substrate assessed as residual kinase activity at 10 uM after 30 mins in presence of [gamma-33P]ATP
Target sequence in this assay (P11309 whole entry, looked up): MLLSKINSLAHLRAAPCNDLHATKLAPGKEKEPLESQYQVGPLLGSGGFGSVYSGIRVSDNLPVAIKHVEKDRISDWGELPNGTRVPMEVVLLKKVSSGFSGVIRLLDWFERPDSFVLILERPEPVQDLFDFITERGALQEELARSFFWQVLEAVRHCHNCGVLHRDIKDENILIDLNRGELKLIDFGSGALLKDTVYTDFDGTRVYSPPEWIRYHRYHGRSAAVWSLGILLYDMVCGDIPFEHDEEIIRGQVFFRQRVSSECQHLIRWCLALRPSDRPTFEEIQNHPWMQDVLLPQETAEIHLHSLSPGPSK

[2] = biological target: T1, Serine/threonine-protein kinase pim-1; assay: Inhibition of full-length human PIM1 using RSRHSSYPAGT as substrate assessed as residual kinase activity at 1 uM after 30 mins in presence of [gamma-33P]ATP
Target sequence in this assay (P11309 whole entry, looked up): as above

[3] = biological target: Serine/threonine-protein kinase pim-2 (Homo sapiens) (UniProt Q9P1W9); assay: Inhibition of full-length human PIM2 using RSRHSSYPAGT as substrate assessed as residual kinase activity at 10 uM after 30 mins in presence of [gamma-33P]ATP
Chain of Serine/threonine-protein kinase pim-2 (Homo sapiens) (Q9P1W9 whole entry, looked up): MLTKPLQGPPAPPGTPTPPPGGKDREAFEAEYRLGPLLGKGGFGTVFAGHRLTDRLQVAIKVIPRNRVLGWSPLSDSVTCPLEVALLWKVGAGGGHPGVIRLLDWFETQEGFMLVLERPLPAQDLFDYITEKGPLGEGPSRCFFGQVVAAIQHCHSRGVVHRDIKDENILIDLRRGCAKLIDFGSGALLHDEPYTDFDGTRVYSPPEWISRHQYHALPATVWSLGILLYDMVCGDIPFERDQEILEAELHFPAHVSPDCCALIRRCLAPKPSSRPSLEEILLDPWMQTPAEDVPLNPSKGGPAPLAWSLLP

[4] = biological target: Serine/threonine-protein kinase pim-2 (Homo sapiens) (UniProt Q9P1W9); assay: Inhibition of full-length human PIM2 using RSRHSSYPAGT as substrate assessed as residual kinase activity at 1 uM after 30 mins in presence of [gamma-33P]ATP
[5] = biological target: T2, Serine/threonine-protein kinase pim-3 (Homo sapiens, UniProt Q86V86); assay: Inhibition of full-length human PIM3 using RSRHSSYPAGT as substrate assessed as residual kinase activity at 10 uM after 30 mins in presence of [gamma-33P]ATP
[6] = biological target: T2, Serine/threonine-protein kinase pim-3; assay: Inhibition of full-length human PIM3 using RSRHSSYPAGT as substrate assessed as residual kinase activity at 1 uM after 30 mins in presence of [gamma-33P]ATP
[7] = biological target: T2, Serine/threonine-protein kinase pim-3; assay: Inhibition of full-length human PIM3 using RSRHSSYPAGT as substrate assessed as residual kinase activity after 30 mins in presence of [gamma-33P]ATP
[8] = Antiproliferative activity against human PC3 cells at 10 uM after 72 hrs by MTS assay; format: functional; conditions: PC-3, 72 h
[9] = Antiproliferative activity against human PC3 cells after 72 hrs by MTS assay; format: functional, cell-based; conditions: PC-3, 72 h
[10] = system: LNCaP; assay: Antiproliferative activity against human LNCAP cells at 10 uM after 72 hrs by MTS assay; format: functional
[11] = biological target: T1, Serine/threonine-protein kinase pim-1; assay: Inhibition of full-length human PIM1 using RSRHSSYPAGT as substrate assessed as residual kinase activity after 30 mins in presence of [gamma-33P]ATP
Target sequence in this assay (P11309 whole entry): as the sequence (P11309 whole entry, looked up) above

Row | SMILES | Activity [1] [%] | Activity [2] [%] | Activity [3] [%] | Activity [4] [%] | Activity [5] [%] | Activity [6] [%] | IC50 [7] [nM] | IC50 [11] [nM] | inhibition at 10 µM [8] [%] | IC50 [9] [nM] | inhibition at 10 µM [10] [%]
1 | O=[N+]([O-])c1cc2[nH]ncc2c2c1ncc1ccc(Cl)cc12 | 9 | 28 | 47 | 83 | 4 | 8.9 | 200 |  | 75 | 3000 | 31
2 | O=[N+]([O-])c1cc2[nH]ncc2c2c1ncc1cc3c(cc12)OCO3 | 15.8 | 53 | 54 | 92 | 7 | 18.9 | 400 |  | 60 | 5000 | 54
3 | COc1ccc2c(cnc3c([N+](=O)[O-])cc4[nH]ncc4c32)c1 | 15 | 20 | 55 | 64 | 5.5 | 8 | 140 | 120 | 73 | 1100 | 40
4 | O=[N+]([O-])c1cc2[nH]ncc2c2c1ncc1c(F)cccc12 | 19 | 46 | 66 | 84 | 6.7 | 14 | 169 |  | 37 |  | 46

Second part, led by results:

Row | Activity [1] [%] | Activity [2] [%] | Activity [3] [%] | Activity [4] [%] | Activity [5] [%] | Activity [6] [%] | IC50 [7] [nM] | IC50 [11] [nM] | SMILES | inhibition at 10 µM [8] [%] | IC50 [9] [nM] | inhibition at 10 µM [10] [%]
5 | 16 | 90 | 76 | 110 | 7.9 | 42 |  |  | Nc1cc2[nH]ncc2c2c1ncc1c(F)cccc12 |  |  | 
6 | 17 | 55 | 43 | 86 | 24 | 55 |  |  | Nc1cc2[nH]ncc2c2c1ncc1ccccc12 |  |  | 
7 | 2.2 | 16 | 8.1 | 46 | 0.9 | 6 | 20 | 70 | O=[N+]([O-])c1cc2[nH]ncc2c2c1ncc1ccccc12 | 68 | 2460 | 54
8 | 18 | 88 | 57 | 96 | 10.5 | 50 |  |  | Nc1cc2[nH]ncc2c2c1ncc1ccc(Cl)cc12 |  |  | 
9 | 35 | 96 | 84 | 100 | 16.5 | 60 |  |  | COc1ccc2c(cnc3c(N)cc4[nH]ncc4c32)c1 |  |  | 
10 | 11 | 44 | 38 | 84.6 | 47 | 98 |  |  | c1ccc2c(c1)cnc1ccc3[nH]ncc3c12 |  |  | 
